Earlier results in US7057165B2, “Probe for mass spectrometry” (Sense Proteomic Ltd., priority 2001, dated 2006).

Target: T1, lectin from Arachis hypogea (Arachis hypogaea, UniProt P02872)
T1 construct: biotin (biotinylated lectin)
T1 sequence (P02872 24-259 limits assumed): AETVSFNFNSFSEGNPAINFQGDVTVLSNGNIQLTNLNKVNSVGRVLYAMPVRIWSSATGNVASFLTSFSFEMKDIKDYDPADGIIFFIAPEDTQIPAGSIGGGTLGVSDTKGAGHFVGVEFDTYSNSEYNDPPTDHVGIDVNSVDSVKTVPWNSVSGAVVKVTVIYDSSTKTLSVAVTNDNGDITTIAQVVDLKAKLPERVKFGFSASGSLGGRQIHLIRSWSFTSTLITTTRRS

In the case of `OC[C@H]1O[C@@H](O[C@H]2[C@H](O)[C@@H](O)C(O)O[C@@H]2CO)[C@H](O)[C@@H](O)[C@H]1O` (stereo partly shown) [lactose], the “binding constant for this lectin” value is listed as “millimolar range”.
